Source: US20210113540A1, “TREATMENT AGENT AND PHARMACEUTICAL COMPOSITION FOR GLIOMA” (NATIONAL UNIVERSITY CORPORATION HOKKAIDO UNIVERSITY, priority 2018, published 2021)
Read-outs that look alike come from different tables or passages of the source.

Key:
[1] = system: Glioma-initiating cell E6R; assay: Cell growth test (MTT) on GICR strain E6R; format: cell-based; conditions: Homo sapiens, 72 h
Protocol: GICR strain: Cell growth test was performed using E6R (Stem Cells. 2016 August; 34(8):2016-25.).
(§1) Cell culture solutions were obtained by mixing a medium prepared by adding various compounds, bFGF (Peprotech, 100-18B) and EGF (Peprotech, 100-15) to DMEM/Ham's F-12 medium (SIGMA, D8062) and a medium prepared by adding FCS (Hyclone, SH30910.03) to DMEM medium (Nacalai tesque, 08458-45) to a concentration of 10% for use.
(§2) Each compound adjusted to a predetermined concentration was dispensed into a 96-well plate (Falcon, 353072) at 80 μL/well, and E6 cells and E6R cells were seeded on the 96-well plate at 1000 cells/80 μL/well. After 3 days, 10 μL of an MTT reagent (DOJINDO, 341-01823) was added, the cells were incubated at 37° C. for 3 hours, the culture solution was removed, and 100 μL of DMSO was added. The absorbance at 570 nm was measured using Bio-Rad iMark (Bio-Rad, 168-1130JA). The growth inhibition rate at each test compound concentration was calculated by the following formula using the absorbance as an index of the viable cell count.
(§3) The growth inhibition rate at each compound concentration was determined, and the 50% growth inhibition concentration GI50 (μmol/L)] was calculated using XLfit. Growth inhibition rate (%)=(Amount of luminescence from wells supplemented with test compound)/(Amount of luminescence from wells supplemented with DMSO)×100
(§4) GIC and GICR strain: Cell growth test was performed using E6, E6R, E16, and E16R (Stem Cells. 2016 August; 34(8): 2016-25.).

[2] = system: Glioma-initiating cell E6; assay: Cell proliferation test (MTT) on GIC strain E6; format: cell-based; conditions: Homo sapiens, 72 h, MTT after 3 days
Protocol: as §4, §1, §2, §3

[3] = system: Glioma-initiating cell E16; assay: Cell proliferation test (MTT) on GIC strain E16; format: cell-based; conditions: Homo sapiens, 72 h, MTT after 3 days
Protocol: as §4, §1, §2, §3

[4] = system: Glioma-initiating cell E16R; assay: Cell proliferation test (MTT) on GICR strain E16R; format: cell-based; conditions: Homo sapiens, 72 h, MTT after 3 days
Protocol: as §4, §1, §2, §3

[5] = biological target: T1, recombinant human DHODH (Homo sapiens, UniProt Q02127); assay: DHODH enzyme assay (DCIP quenching); format: biochemical; conditions: pH 8.0, DCIP absorbance 600 nm, 50 minutes; read-out: DHODH enzyme inhibition IC50
T1 construct: DHODH, 31-395aa, Human, His tag, E. coli, ATGP1615; His tag; purchased ATGen ATGP1615; host or cells: E. coli
Protocol: For DHODH enzyme assay, “Benjamin Bader, Wolfgang Knecht, Markus Fries, and Monika Löffler. Expression, Purification, and Characterization of Histidine-Tagged Rat and Human Flavoenzyme Dihydroorotate Dehydrogenase. Protein Expression and Purification, 1998, 13, 414-422” was referred to.
DHODH activity was evaluated using an enzyme assay system that couples with an assay in a blue-coloring dye 2,6-dichlorophenol indophenol (DCIP, MP BIOMEDICALS, MP150118) quenching assay. Purified recombinant human DHODH (DHODH, 31-395aa, Human, His tag, E. coli, ATGP1615) was purchased from ATGen. […] Enzyme activity was assessed by measuring the decrease in DCIP absorbance (600 nm) for 50 minutes using an Envision plate-reading spectrophotometer (PerkinElmer Co., Ltd.). […]
Enzyme reaction inhibition rate (%)=(Amount of luminescence from wells supplemented with test compound)/(Amount of luminescence from wells supplemented with DMSO)×100

[6] = system: SOX2 in GICs (E6); assay: SOX2 immunostaining, SOX2/DAPI positive rate in GICs (E6); format: cell-based, human; conditions: 20 μmol/L OSMI-1, cultured 2 days; control 71±2%
Protocol: (§5) The extranuclear elimination of compound 8-dependent SOX2 is dependent on the extranuclear transport factor, Exportin (also known as CRM1). The cells were cultured for one day in the presence of Compound 8 (10 μM) and a CRM1-specific inhibitor leptomycin B (LMB, 150 nM), and GICs were immunostained with the SOX2 antibody. As a result, the SOX2/DAPI positive rate in GICs (E6) was as follows: Control: 95±2%, supplemented with Compound 8: 7±3%, supplemented with Compound 8+LMB: 87±9%; the SOX2/DAPI positive rate in GICs (E16) was as follows: Control: 72±11%, supplemented with compound 8: 0.5±1%, supplemented with Compound 8+LMB: 81±10%. The addition of LMB suppressed Compound 8-dependent extranuclear elimination of SOX2.
(§6) When UDP-GlcNAc was added after the chemical was added to GIC, reduced SOX2 expression in GICs and the cytotoxic activity of Compound 8 on GICs were neutralized (FIGS. 3 and 4). SOX2 K75A in which lysine 75 involved in the binding of CRM1 and SOX2 was substituted with alanine and SOX2 S248A in which the 0-GlcNAcylation target serine 248 was substituted with alanine were prepared, thereby establishing GICs that constitutively express these SOX2 mutants and wild-type SOX2 (SOX2 wt). After treatment with Compound 8, the localization of SOX2 was examined by immunostaining using an anti-FLAG antibody, and the viability of GICs expressing these mutants was examined by MTT assay (FIG. 5). In the presence of Compound 8, SOX2 K75A was present in the nucleus and partially neutralized the cytotoxic activity of Compound 8. SOX2 S248A was not retained in the nucleus by treatment with Compound 8, and no inhibitory effect on cytotoxic activity was observed. […] The SOX2/DAPI positive rate was as follows: GIC (E6): Control: 0%, SOX2 wt: 36±5%, SOX2 K75A: 63±5%, SOX2 S248A: 18±2%; GIC (E16): Control: 0%, SOX2 wt: 22±4%, SOX2 K75A: 58±6%, SOX2 S248A: 15±3%. Error bar: ±SD. Statistical processing is t-test. *P<0.05, **P<0.01, ***P<0.001. GIC was cultured for 2 days with Compound 8 (10 μmol/L) alone or together with UDP-GlcNAc (1 mmol/L), and immunostaining was performed for SOX2 and NESTIN. As a result, the addition of UDP-GlcNAc suppressed Compound 8-dependent extranuclear elimination of SOX2.
(§7) OSMI-1, which is an O-GlcNAc transferase (OGT)-specific inhibitor, suppresses GIC growth and SOX2 expression. (A) GICs were cultured for 3 days in the presence of various concentrations of OSMI-1, and cell growth was examined using MTT assay (FIG. 6). (B) The results of immunostaining for SOX2 and NESTIN using GICs cultured for 2 days in the presence of 20 μmol/L OSMI-1 and calculating the SOX2 positive rate (SOX2/DAPI) are shown below.

[7] = system: SOX2 in GICs (E16); assay: SOX2 immunostaining, SOX2/DAPI positive rate in GICs (E16); format: cell-based, human; conditions: 20 μmol/L OSMI-1, cultured 2 days; control 65±5%
Protocol: as §5, §6, §7

[8] = system: GICs; assay: GIC growth in the presence of OSMI-1 (MTT assay); format: cell-based, human; conditions: cultured 3 days, various concentrations of OSMI-1, FIG. 6
Protocol: as §7

[9] = MTT after 3 days, read-out: ER6 GI50
[10] = class of ER6 GI50, MTT after 3 days, read-out: Evaluation

T1 sequence (Q02127 31-395): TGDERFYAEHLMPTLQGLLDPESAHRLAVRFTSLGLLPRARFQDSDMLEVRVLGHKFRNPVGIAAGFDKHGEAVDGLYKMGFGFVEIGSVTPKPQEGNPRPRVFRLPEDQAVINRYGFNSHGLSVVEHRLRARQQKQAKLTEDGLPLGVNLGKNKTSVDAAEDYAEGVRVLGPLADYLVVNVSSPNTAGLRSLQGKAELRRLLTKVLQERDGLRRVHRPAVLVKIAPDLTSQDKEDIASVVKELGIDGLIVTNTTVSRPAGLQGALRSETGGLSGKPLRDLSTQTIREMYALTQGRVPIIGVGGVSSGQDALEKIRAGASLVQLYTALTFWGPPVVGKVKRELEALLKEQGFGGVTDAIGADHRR

O=C(O)c1cc(C2CC2)cnc1Nc1ccc2c(ccn2Cc2cccc(F)c2)c1 [Compound 21, 5-cyclopropyl-2-((1-(3-fluorobenzyl)-1H-indole-5-yl)amino)nicotinic acid]
GI50 ([1]; MTT after 3 days, read-out: GI50 (nmol/L) of Glioma-initiating cell E6R): 655 nmol/L
GI50 ([1]; MTT after 3 days, read-out: GI50 class of Glioma-initiating cell E6R): < 1000 nmol/L
GI50 ([2]; read-out: GI50 (nmol/L) of Glioma-initiating cell E6): 100 nmol/L
GI50 ([2]; read-out: GI50 class of Glioma-initiating cell E6): < 1000 nmol/L
GI50 ([3]; read-out: GI50 (nmol/L) of Glioma-initiating cell E16): 11800 nmol/L
GI50 ([3]; read-out: GI50 class of Glioma-initiating cell E16): ≥ 10000 nmol/L
GI50 ([4]; read-out: GI50 (nmol/L) of Glioma-initiating cell E16R): 1960 nmol/L
GI50 ([4]; read-out: GI50 class of Glioma-initiating cell E16R): 1000 to 10000 nmol/L
IC50 [5]: 28.6 nM

COc1ccccc1[C@@H](NS(=O)(=O)c1ccc2[nH]c(=O)ccc2c1)C(=O)N(Cc1ccco1)Cc1cccs1 [OSMI-1, reference compound]
SOX2 positive rate (SOX2/DAPI), GIC (E6) [6]: 32±4%
SOX2 positive rate (SOX2/DAPI), GIC (E16) [7]: 30±5%
GIC growth [8]: suppresses

Cn1ccc2cc(Nc3ncc(C4CC4)cc3C(=O)O)cc(-c3ccc(Cl)cc3)c21 [Compound 18, 2-((7-(4-chlorophenyl)-1-methyl-1H-indole-5-yl)amino)-5-cyclopropylnicotinic acid]
GI50 [1, 9]: 0.62 nmol/L
GI50 [1, 10]: < 1000 nmol/L

O=C(O)c1cc(C2CC2)cnc1Nc1ccc2c(ccn2CC2CCCCC2)c1 [Compound 2, 2-((1-(cyclohexylmethyl)-1H-indole-5-yl)amino)-5-cyclopropylnicotinic acid]
GI50 [1, 9]: 82.6 nmol/L
GI50 [1, 10]: < 1000 nmol/L

Cn1ccc2cc(Nc3ncc(C4CC4)cc3C(=O)O)cc(-c3ccccc3F)c21 [Compound 4, 5-cyclopropyl-2-((7-(2-fluorophenyl)-1-methyl-1H-indole-5-yl)amino)nicotinic acid]
GI50 [1, 9]: 1.69 nmol/L
GI50 [1, 10]: < 1000 nmol/L
